Laboratory results taken from publication PMC9917132, “Tenebrio molitor as a Simple and Cheap Preclinical Pharmacokinetic and Toxicity Model” (International Journal of Molecular Sciences, 2023).
Read-outs that look alike come from different tables or passages of the source.

Assays:
[1] = system: adult exemplars of T. molitor Coleoptera; assay: Toxicity of vehicles in adult T. molitor Coleoptera (survival, vitals monitored daily for seven days); type: in vivo, Tenebrio molitor; details: for Survival %: groups of six TMC, seven days; for tolerability: 1 µL per TMC (lower dose)
Experimental: Considering the limited volume of hemolymph, we considered injecting 1 or 2 µL of vehicles per TMC. The most common vehicles used for i.v. and i.p. studies were administered to experimental groups of six TMC and vitals were monitored daily for seven days. Results are reported in Table 1, expressed as survival %.
TMC were randomly selected for toxicity assessment. TMC older than 3 days were discarded. Compounds were solubilized in the opportune vehicle and injected on the hemocoel using a Hamilton syringe, (7001 KH, volume 1 µL, needle size 25 s, cone tip), by administering 1 µL of compound on the TMC dorsal side, between the pronotum and elytron.

Mice = details: cited from earlier work
[2] = Acute toxicity (LD50) in adult T. molitor Coleoptera (TMC) after injection in the hemocoel; type: in vivo, Tenebrio molitor; details: Tenebrio molitor, in vivo, other: injection in the hemocoel; 1 µL in 100% DMSO injected in hemocoel; mortality recorded daily for 7 days; highest dose 2000 mg/kg
Experimental: (§1) The literature was carefully studied to identify the starting dose of a panel of drugs; however, when no data were available, the protocol described in Figure 1 was adopted, using 1 TMC and starting from the dose of 200 mg/kg.
(§2) The protocol depicted in Figure 2 has been adopted to determine LD50, starting from the opportune dose determined as described above. A panel of 20 drugs available on the market, including antivirals, antibiotics and the representative drugs for several pharmaceutical classes, was analyzed (Table 2).
(§3) Figure 2 Flowchart for LD50 determination. Starting from the opportune initial dose, LD50 was determined by changing the dose based on results and increasing the number of […] for final determinations. GHS cat.: Globally Harmonized System category. The numbers on the circles represent the number of deaths in exemplars.
(§4) TMC were randomly selected for toxicity assessment. TMC older than 3 days were discarded.
(§5) Acute toxicity was determined following the Organization for Economic Cooperation and Development (OECD) guidelines for acute toxicity of chemicals. All the available information on the test substance was considered to select the toxic dose of test compounds. Data were collected considering LD50 already reported for humans, rats and mice or, when possible, insects (e.g., Galleria mellonella). The initial dose, expressed in mg/kg, was calculated as the lowest LD50 reported in the literature. When no data were found in the literature, the starting dose of 200 mg/kg was used and the range-finding study was conducted with 1 TMC, by adapting OECD guidelines (Figure 1). To perform LD50 calculation study, 5 TMC were injected with the selected dose, and mortality was recorded daily for 7 days. Each experiment included 1 control group treated with DMSO. […] If 1 or less TMC died, the experiment was performed with a higher dose. If 2 or 3 TMC died, the experiment was repeated by re-testing the initial dose with 10 TMC. […] The experiment continued until a toxic dose was determined.

Rats = details: cited from earlier work; for LD50: reported
[3] = NADPH-generating system, 37 °C, pH 7.4
Experimental: To characterize their phase I metabolism, the drugs were incubated with human or rat microsomes and their main metabolites were determined by HPLC-MS analysis and compared to data already reported (Table 3).
After centrifuging the reaction mixtures, the parent drug and its metabolites were characterized by LC-UV-MS [38].
HPLC analysis was performed using an Agilent 1100 LC/MSD VL system (G1946C) (Agilent Technologies, Palo Alto, CA) comprising a vacuum solvent degassing unit, a binary high-pressure gradient pump and a 1100 series UV detector; a 1100 MSD model VL benchtop mass spectrometer was used to perform the chromatographic analysis. Chromatographic separation was obtained using a Phenomenex Kinetex C18-100 Å column (100–4.6 mm, 5 μm particle size). […] The injection volume was 20 μL and the flow rate was 0.4 mL min^−1. The orthogonal spray API-ES was installed on the Agilent 1100 series mass spectra-detection single-quadrupole instrument (Agilent Technologies, Palo Alto, CA, USA). N2 was used as a nebulizing and drying gas. The vaporization temperature, capillary voltage, fragmentor voltage, drying gas flow and pressure were set at […], respectively. […] The LC-ESI-MS measurements were performed by operating in either the positive or negative ion mode. Spectra were acquired over the scan range m/z 100–1500 using a step size of 0.1 u. […]

[4] = Preliminary in vivo PK in TMC (hemolymph analysis by HPLC); details: single dose equal to half the LD50 (62.5 or 150 mg/kg); hemolymph at 0, 1, 2, 4, 8, 24 hpt
[5] = set-up: method as in doi:10.1201/9780429460418; details: literature data; cited from earlier work
[6] = cited from earlier work; for T ½ / Vd: PK literature data
[7] = set-up: method as in doi:10.1201/9780429460418; details: literature data; cited from earlier work; remark: listed apart in the source
guinea pigs = details: i.v., reported; cited from earlier work
dogs = details: i.v., reported; cited from earlier work
[8] = set-up: method as in PMID 33649113; details: oral administration; cited from earlier work
Tenebrio molitor = assay: Acute toxicity (LD50) in adult T. molitor Coleoptera (TMC) after injection in the hemocoel; type: in vivo; details: dose of 2000 mg/kg
Experimental: as §1, §2, §3, §4, §5

[9] = in some people, depending on age and state of health

Compound	LD50 Mice ip (Mice)	LD50 at 7 days [2]	LD50 Rats ip (Rats)	LD50 Mice iv (Mice)	LD50 Rats iv (Rats)	further results
CC(C)=O [Acetone]	–	–	–	–	–	Survival % ([1]; 1 µL injected per TMC): 100%; tolerability [1]: well tolerated; Survival % ([1]; 2 µL injected per TMC): 16.6%
Nc1nc2c(ncn2COCCO)c(=O)[nH]1 [Acyclovir]	1000 mg/kg	> 2000 mg/kg	–	–	–	LD50 (dose reported by Tucker et al.) (Rats; rats): greater than 650 mg/kg
CC1(C)S[C@@H]2[C@H](NC(=O)[C@H](N)c3ccc(O)cc3)C(=O)N2[C@H]1C(=O)O [Amoxicillin]	–	750 mg/kg	2870 mg/kg	–	–	–
NC(=O)N1c2ccccc2C=Cc2ccccc21 [Carbamazepine]	114 mg/kg	125 mg/kg	158 mg/kg	–	–	Stability % Human Microsomes ([3]; human liver microsomes 0.2 mg/mL, 60 min): 77.54%; elimination / metabolism of parent drug in TMC hemolymph [4]: decreased after 4h; Protein Binding [5]: 70–80%; T ½ [6]: 5 h; Vd [6]: 0.8 to 1.9 L/kg
O=C(N[C@H](CO)[C@H](O)c1ccc([N+](=O)[O-])cc1)C(Cl)Cl [Chloramphenicol]	–	300 mg/kg	–	171 mg/kg	–	–
CN(C)CCCN1c2ccccc2Sc2ccc(Cl)cc21 [Chlorpromazine]	14 mg/kg	300 mg/kg	137 mg/kg	106 mg/kg	–	Stability % Rats Microsomes ([3]; rat liver microsomes 0.2 mg/mL, 30 min): 77.99%; elimination / metabolism of parent drug in TMC hemolymph [4]: extensively metabolized; Protein Binding [5]: 95–98%; T ½ [6]: 8 to 35 h; Vd [6]: 7 to 20 L/kg; t ½ (prolonged) [6, 9]: 60 h; t ½ (reduced) [6, 9]: 2 h; LogS [7]: −5.01
CN/C(=N/CCSCc1nc[nH]c1C)NC#N [Cimetidine]	306 mg/kg	750 mg/kg	328 mg/kg	150 mg/kg	326 mg/kg	–
Cc1onc(-c2ccccc2Cl)c1C(=O)N[C@@H]1C(=O)N2[C@@H]1SC(C)(C)[C@@H]2C(=O)O [Cloxacillin]	–	750 mg/kg	–	–	1660 mg/kg	–
COc1ccc2c3c1O[C@H]1[C@@H](O)C=C[C@H]4[C@@H](C2)N(C)CC[C@@]341 [Codeine]	60 mg/kg	50 mg/kg	100 mg/kg	–	75 mg/kg	–
C[S+](C)[O-] [DMSO]	–	–	–	–	–	LD50 (Mice; i.v., mice, reported): 20600 mg/kg; LD50 (guinea pigs): 6500 mg/kg; Survival % ([1]; 1 µL injected per TMC): 100%; tolerability [1]: well tolerated; Survival % ([1]; 2 µL injected per TMC): 0%; lethality ([1]; 2 µL per TMC): 100%; LD50 (dogs): 2500 mg/kg; LD50 (Rats; i.v., rats): 5400 mg/kg
CCO [EtOH]	–	–	–	–	–	Survival % ([1]; 1 µL injected per TMC): 100%; tolerability [1]: well tolerated; Survival % ([1]; 2 µL injected per TMC): 50%; LD50 (Rats; rats, route not given): 1400 mg/kg
CC(C(=O)O)c1cccc(C(=O)c2ccccc2)c1 (stereo not shown) [Ketoprofen]	300 mg/kg	–	80 mg/kg	–	350 mg/kg	–
Cc1cccc(C)c1NC(=O)C1CCCCN1C (stereo not shown) [Mepivacaine]	135 mg/kg	125 mg/kg	–	35 mg/kg	30 mg/kg	–
COCCc1ccc(OCC(O)CNC(C)C)cc1 (stereo not shown) [Metoprolol]	>200 mg/kg	500 mg/kg	–	62 mg/kg	71.9 mg/kg	–
CC(C)C(=O)OC[C@H]1O[C@@H](n2ccc(NO)nc2=O)[C@H](O)[C@@H]1O [Molnupiravir]	–	> 2000 mg/kg	–	–	–	LD50 [8]: > 800 mg/kg; toxicity at the highest dose (Tenebrio molitor): absence of toxicity
CC(=O)Nc1ccc(O)cc1 [Paracetamol]	340 mg/kg	125 mg/kg	–	–	–	–
O=C(O)c1ccccc1O [Salicylic acid]	300 mg/kg	–	–	–	–	–
Nc1ccc(S(=O)(=O)Nc2ncccn2)cc1 [Sulfadiazine]	750 mg/kg	300 mg/kg	446 mg/kg	180 mg/kg	880 mg/kg	–
COc1cc(Cc2cnc(N)nc2N)cc(OC)c1OC [Trimethoprim]	400 mg/kg	300 mg/kg	500 mg/kg	132 mg/kg	–	–
